Experimental data from patent publication US6656509B1, “Combination of selenium-containing compounds with cytostatics” (Biosyn Arzneimittel GmbH, priority 1998, dated 2003).

Key:
[1] = test system: pancreatic cancer xenograft PAXF 546; experiment: clonogenic assay, single agents and combination studies; assay type: cell-based, human; conditions: observed; X261, X295
Description: (§1) The cell mixture was passed through sieves of 200 μm and 50 μm mesh size and washed thereafter twice with PBS. The percentage of viable cells was determined in a Neubauer counting chamber using trypan blue exclusion.
(§2) 8×10^3 to 1,6×10^4 cells were added to 0.2 ml of the same culture medium together with 0.4% agar and placed in already coated 24-multiwell dishes. Test substances were applied by continuous exposure (drug overlay) in 0.2 ml medium. Every dish included six control wells containing the vehicle- and drug-treated groups in triplicate at six concentrations.
(§3) Cultures were incubated at 37° and 7% CO2 in a humidified atmosphere for 5 to 15 days (depending on the doubling time of the tumor stem cells) and monitored for colony growth using an inverted microscope. Within this period, in vitro tumor growth led to the formation of colonies with a diameter of ≧50 μm. At the time of maximum colony formation counts were performed with an automatic image analysis system (OMNICOM Fas IV, Biosys GmbH). […] Drug effects were expressed in terms of the percentage of surviving cells, obtained by comparison of the mean number of colonies in the treated plates with the mean colony count of the untreated controls (test-versus-control-group value, T/C=colony countTreated Group*100/colony countControl Group).
(§4) Coefficient of variation in the control group ≦50%. IC50 and IC70 values were determined by plotting compound concentration versus cell survival rate. Mean IC50 and IC70 values were calculated according to the formula: [formula]
(§5) with x=specific tumor xenograft and n=total number of tumor xenografts studied. If an IC50 or IC70 value could not be determined within the examined dose range, the lowest or highest concentration studied was used for the calculation.
(§6) Each experiment included the chemotherapeutic agents in 6 concentrations, selenium in 2 concentrations (3 and 30 μM), and the combination of all doses with selenium at 3 and 30 μM. All compounds and combinations were studied in triplicates. […] Each experiment was performed twice.
(§7) T/Cexpectd(A+B)=T/C(A)×T/C(B)/100
(§8) For a zero-interactive drug combination (additivity of drug effects) T/Cexpected(A+B)[…]T/Cobserved(A+B). A drug combination is synergistic if T/Cobserved(A+B) is statistically significant[…]T/Cexpected(A+B). Statistical significance was determined by the T-test.

[2] = test system: pancreatic cancer xenograft PAXF 736; experiment: as above; assay type: cell-based, human; conditions: (X261, X295)
Description: as §1, §2, §3, §4, §5, §6, §7, §8

Nc1ccn([C@@H]2O[C@H](CO)[C@@H](O)C2(F)F)c(=O)n1 [Gemcitabine]
T/C in % at a gemcitabine concentration (μM) [1]: 85 ± 15%
T/C in % at a gemcitabine concentration (μM) of 1.0 [1]: 30 ± 6%
T/C in % at a gemcitabine concentration (μM) of 1 × 10^−1 [1]: 48 ± 8%
T/C in % at a gemcitabine concentration (μM) of 1 × 10^−2 [1]: 61± 11%
T/C in % at a gemcitabine concentration (μM) of 1 × 10^−3 [1]: 83 ± 12%
T/C in % at a gemcitabine concentration (μM) of 1 × 10^−4 [1]: 80 ± 12%
T/C in % at a gemcitabine concentration (μM) of 1 × 10^−5 [1]: 73 ± 20%
T/C in % at a gemcitabine concentration (μM) of 1 × 10^−1 ([2]; gemcitabine alone): 30 ± 8%
T/C in % at a gemcitabine concentration (μM) of 1 × 10^−2 ([2]; gemcitabine alone): 71± 10%
T/C in % at a gemcitabine concentration (μM) of 1 × 10^−3 ([2]; gemcitabine alone): 77 ± 13%
T/C in % at a gemcitabine concentration (μM) of 1 × 10^−4 ([2]; gemcitabine alone): 84 ± 12%
T/C in % at a gemcitabine concentration (μM) of 1 × 10^−5 ([2]; gemcitabine alone): 78 ± 14%
T/C in % at a gemcitabine concentration (μM) of 1 × 10^−6 ([2]; gemcitabine alone): 89 ± 11%

CO[C@@]12[C@H](COC(N)=O)C3=C(C(=O)C(C)=C(N)C3=O)N1C[C@@H]1N[C@@H]12 [Mitomycin C]
T/C in % at a mitomycin C concentration (μM) [1]: 87 ± 11%
T/C in % at a mitomycin C concentration (μM) of 1.0 [1]: 5 ± 2%
T/C in % at a mitomycin C concentration (μM) of 1 × 10^−1 [1]: 57 ± 8%
T/C in % at a mitomycin C concentration (μM) of 1 × 10^−2 [1]: 80± 12%
T/C in % at a mitomycin C concentration (μM) of 1 × 10^−3 [1]: 70 ± 13%
T/C in % at a mitomycin C concentration (μM) of 1 × 10^−4 [1]: 70 ± 10%
T/C in % at a mitomycin C concentration (μM) of 1 × 10^−5 [1]: 84 ± 14%
T/C in % at a mitomycin C concentration (μM) of 1 × 10^−1 ([2]; mitomycin C alone): 11 ± 7%
T/C in % at a mitomycin C concentration (μM) of 1 × 10^−2 ([2]; mitomycin C alone): 30± 7%
T/C in % at a mitomycin C concentration (μM) of 1 × 10^−3 ([2]; mitomycin C alone): 46 ± 8%
T/C in % at a mitomycin C concentration (μM) of 1 × 10^−4 ([2]; mitomycin C alone): 56 ± 11%
T/C in % at a mitomycin C concentration (μM) of 1 × 10^−5 ([2]; mitomycin C alone): 58 ± 10%
T/C in % at a mitomycin C concentration (μM) of 1 × 10^−6 ([2]; mitomycin C alone): 77 ± 13%
